Results reported in patent US20160039936A1, “FIBROBLAST GROWTH FACTOR RECEPTOR INHIBITION FOR THE TREATMENT OF DISEASE” (UNIVERSITY OF MIAMI, priority 2011, published 2016).

B1: FGF23: recombinant mouse FGF23, 6His-tagged Tyr25-Val251 (Arg179Gln) (R&D Systems) (protein)
chain: YPDTSPLLGSNWGSLTHLYTATARTSYHLQIHRDGHVDGTPHQTIYSALMITSEDAGSVVITGAMTRRFLCMDLHGNIFGSLHFSPENCKFRQWTLENGYDVYLSQKHHYLVSLGRAKRIFQPGTNPPPFSQFLARRNEVPLLHFYTVRPRRHTQSAEDPPERDPLNVLKPRPRATPVPVSCSRELPSAEEGGPAASDPLGVLRRGRGDARGGAGGADRCRPFPRFV
modifications: left off: small tags and cut ends
B2: FGF2: recombinant mouse FGF2 (Ala11-Ser154) (R&D Systems) (protein)
chain: ALPEDGGAAFPPGHFKDPKRLYCKNGGFFLRIHPDGRVDGVREKSDPHVKLQLQAEERGVVSIKGVCANRYLAMKEDGRLLASKCVTEECFFFERLESNNYNTYRSRKYSSWYVALKRTGQYKLGSKTGPGQKAILFLPMSAKS

How the values were obtained:
[1] = test system: isolated neonatal rat ventricular cardiac myocytes (NRVM); experiment: Surface area (hypertrophy) of isolated NRVM, immunocytochemistry and morphometry (Examples 1-2); format: cell-based; conditions: for cell surface area: 48 h incubation with the FGF alone
Procedure: NRVM were isolated using a standard isolation system (Worthington Biochemical Corporation) (Toraason et al., Toxicology, 56(1):107-117, 1989). Hearts from 1-2 day old Sprague Dawley rats (Charles River) were harvested, minced in calcium- and magnesium-free Hank's Balanced Salt Solution (HBSS), and the tissue digested with 50 μg/ml trypsin at 4° C. for 20-24 hours. Soybean trypsin inhibitor in HBSS was added and the tissue was further digested with collagenase (in Leibovitz L-15 medium) under slow rotation (15 rpm) at 37° C. for 45 minutes. Cells were released by gently triturating the suspension 20 times with a standard 10 ml plastic serological pipette and filtering it twice through a cell strainer (70 μm, BD Falcon). Cells were incubated at room temperature for 20 minutes and spun at 100 g for 5 minutes. The cell pellet was resuspended in plating medium [Dulbecco's Modified Eagle Medium (DMEM; Cellgro) with 17% Media 199 (Invitrogen), 15% fetal bovine serum (FBS; Invitrogen) and 1% penicillin/streptomycin solution (P/S; Invitrogen)]. Cells were counted using a hemocytometer.
Cells were plated on glass and plastic surfaces which were coated with laminin (Invitrogen; 10μg/ml in PBS) at room temperature for 1 hour prior to plating. For immunofluorescence analysis, 1×10^6 cells were seeded per well on glass coverslips in 6-well plates. For protein and RNA isolation, 2×10^6 cells were seeded in 6 cm-culture dishes. Cells were left undisturbed in plating medium at 37° C. for 72 hours and then cultured in maintenance medium (DMEM with 20% Media 199, 1% insulin-transferrin-sodium selenite solution (ITS; Sigma-Aldrich) and 1% P/S) in the presence of 100 μM 5-bromo-2′-deoxyuridine (BrdU; Sigam-Aldrich) to eliminate proliferating non-myocytes resulting in a relatively pure population of isolated cardiac myocytes (Bishopric et al., 1987). After 4 days, isolated cardiac myocytes were cultured in BrdU-containing maintenance medium in the presence of recombinant murine FGF23 (26.1 kDa, 251 amino acids; R&D Systems) or FGF2 (16.2 kDa, 144 amino acids; R&D Systems) for 48 hours.
We analyzed isolated NRVM on laminin-coated glass coverslips by immunocytochemsitry according to our established protocols (Faul et al., Cell Biol., 169(3):415-424, 2005; Faul et al., Cell Biol., 27(23):8215-8227, 2007). The mouse monoclonal antibody against sarcomeric α-actinin (EA-53; Sigma-Aldrich) was used at 1:1000 and Cy3-conjugated goat-anti mouse (Jackson Immuno Research) as secondary antibody at 1:750. To visualize nuclei, fixed cells were incubated with 4′,6-diamidino-2-phenylindole (DAPI; 400 ng/ml in PBS) for 5 minutes. Immunofluorescence images were taken on a Leica TCS-SP5 confocal microscope with a 63× oil objective with a 1.6× zoom. Leica AF6000 fluorescence software was used to measure the cell surface area based on α-actinin-positive staining.
To assess the signaling pathways involved in FGF23- and FGF2-mediated hypertrophy, we analyzed the morphometry of plated cells that were pre-treated with specific inhibitors for 60 minutes prior to the addition of the FGFs at varying concentrations.

isolated NRVM = experiment: Quantitative PCR of ANP and BNP in NRVM; format: cell-based, rat; conditions: for expression of ANP and BNP: 48 h, FGF alone, qPCR
Procedure: Total RNA was purified from isolated NRVMs using Trizol (G Biosciences) according to the manufacturer's protocol, and reverse transcribed using Qscript (Quanta Biosciences). Gene expression was quantified by real-time PCR on a Biorad CFX 96 real-time Detection System using 200 ng of cDNA, PerfeCTA SYBR Green FastMix ROX (Quanta Biosciences). RNA from total mouse and rat hearts was extracted using the PureLink RNA Mini Kit (Ambion by Life Technologies) and Trizol (Life Technologies). 2 μg total RNA was reverse-transcribed using First Stand cDNA Synthesis Kit for RT-PCR (AMV) (Roche Diagnostics). Quantitative PCR reactions were carried out in the StepOne plus Real-Time PCR System (Applied Biosystems) using FAST SYBR Green Master Mix (Applied Biosystems). Raw data were quantified via StepOne™ software v2.3 from life Technologies. Relative gene expression was normalized to expression levels of 18S rRNA (for NRVM), and GAPDH or beta actin (mouse and rat tissue), and evaluated using the 2^−ΔΔCt method.

Molecule | FGF2-induced increase in cell surface area (hypertrophy) in presence of inhibitor ([1]; 48 h FGF2, inhibitor pre-treated 60 min at Table 2 concentration) | FGF23-induced increase in cell surface area (hypertrophy) in presence of inhibitor ([1]; 48 h FGF23, inhibitor pre-treated 60 min at Table 2 concentration) | FGF2-mediated increases in ANP and BNP expression with inhibitor (isolated NRVM; 48 h co-treatment) | FGF23-mediated increases in ANP and BNP expression with inhibitor (isolated NRVM; 48 h co-treatment) | cell surface area [1] | expression of ANP and BNP (isolated NRVM)
CCN(CC)CCCCNc1ncc2cc(-c3cc(OC)cc(OC)c3)c(NC(=O)NC(C)(C)C)nc2n1 [PD173074] | completely blocked | completely blocked | blocks | blocks | – | –
B1 | – | – | – | – | significant increase | significantly increased
B2 | – | – | – | – | significant increase | significantly increased
